The experiment deals with T1, recombinant human PDK1 (Homo sapiens, UniProt O15530).
T1 construct: containing amino acids 51-556 of the human PDK1 enzyme; made in house; host or cells: Sf9 insect cells
T1 sequence (O15530 51-556): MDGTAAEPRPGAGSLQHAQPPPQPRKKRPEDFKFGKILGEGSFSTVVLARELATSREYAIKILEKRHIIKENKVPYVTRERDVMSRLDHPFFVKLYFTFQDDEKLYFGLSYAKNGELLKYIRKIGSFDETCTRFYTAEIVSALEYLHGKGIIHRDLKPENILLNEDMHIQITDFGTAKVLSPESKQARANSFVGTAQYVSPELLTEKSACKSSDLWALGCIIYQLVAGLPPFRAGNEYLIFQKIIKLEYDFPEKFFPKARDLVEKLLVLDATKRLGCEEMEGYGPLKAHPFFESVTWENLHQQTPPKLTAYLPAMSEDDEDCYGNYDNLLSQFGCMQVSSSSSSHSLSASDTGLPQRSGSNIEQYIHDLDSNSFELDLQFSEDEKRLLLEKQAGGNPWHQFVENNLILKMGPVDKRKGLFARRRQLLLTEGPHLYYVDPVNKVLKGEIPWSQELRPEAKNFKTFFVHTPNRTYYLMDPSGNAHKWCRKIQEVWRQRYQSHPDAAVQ
Nature of the experiment: PDK1 IMAP fluorescence polarization assay (inhibition of peptide substrate phosphorylation). The experiment is classed as biochemical. The conditions noted are these: Table 10; compounds 97-132.

This is an account of results in US8623857B2, “N-phenyl imidazole carboxamide inhibitors of 3-phosphoinositide-dependent protein kinase-1” (Merck Sharp & Dohme Corp., priority 2010, dated 2014).

In general, IC50 refers to the midpoint of a concentration-inhibition curve. For the compound `NCC1CCN(c2c(F)cccc2NC(=O)c2nc(-c3ccc(=O)n(C(F)F)c3)c[nH]2)CC1` [Compound 97, N-(2-(4-(aminomethyl)piperidin-1-yl)-3-fluorophenyl)-4-(1-(difluoromethyl)-6-oxo-1,6-dihydropyridin-3-yl)-1H-imidazole-2-carboxamide], the IC50 is 51 to 250 nM.

`Cc1cc(-c2c[nH]c(C(=O)Nc3cccc(F)c3N3CCC[C@@H](N)C3)n2)cc(Cl)n1` [Compound 98, (R)—N-(2-(3-aminopiperidin-1-yl)-3-fluorophenyl)-4-(2-chloro-6-methylpyridin-4-yl)-1H-imidazole-2-carboxamide]: the IC50 was 251 to 1000 nM.

As for `NCC1CCN(c2c(F)cccc2NC(=O)c2nc(-c3cc(N4CCOCC4)nc(N)n3)c[nH]2)CC1` [Compound 99, 4-(2-amino-6-morpholinopyrimidin-4-yl)-N-(2-(4-(aminomethyl)piperidin-1-yl)-3-fluorophenyl)-1H-imidazole-2-carboxamide], the IC50 was in the range of 1 to 50 nM.

As for `CNc1nc(-c2c[nH]c(C(=O)Nc3cccc(F)c3N3CCC(CN)CC3)n2)cc(N2CCN(C(=O)OC)CC2)n1` [Compound 100, methyl 4-(6-(2-(2-(4-(aminomethyl)piperidin-1-yl)-3-fluorophenylcarbamoyl)-1H-imidazol-4-yl)-2-(methylamino)pyrimidin-4-yl)piperazine-1-carboxylate], the IC50 lay within 1 to 50 nM.

As for `CNc1nc(-c2c[nH]c(C(=O)Nc3cccc(F)c3N3CCC(CN)CC3)n2)cc(N2CCN(C(C)=O)CC2)n1` [Compound 101, 4-(6-(4-acetylpiperazin-1-yl)-2-(methylamino)pyrimidin-4-yl)-N-(2-(4-(aminomethyl)piperidin-1-yl)-3-fluorophenyl)-1H-imidazole-2-carboxamide], the IC50 was 1 to 50 nM.

Turning to `CNc1nc(-c2c[nH]c(C(=O)Nc3ccccc3N3CCNCC3)n2)cc(N2CCN(C(C)=O)CC2)n1` [Compound 103, 4-(6-(4-acetylpiperazin-1-yl)-2-(methylamino)pyrimidin-4-yl)-N-(2-(piperazin-1-yl)phenyl)-1H-imidazole-2-carboxamide], the IC50 is 51 to 250 nM.

Consider `CNc1nc(-c2c[nH]c(C(=O)Nc3ccccc3N3CCNCC3)n2)cc(N2CCN(C(=O)OCc3ccccc3)CC2)n1` [Compound 105, benzyl 4-(2-(methylamino)-6-(2-(2-(piperazin-1-yl)phenylcarbamoyl)-1H-imidazol-4-yl)pyrimidin-4-yl)piperazine-1-carboxylate], for which the IC50 was in the range of 1000 to 5000 nM.

For `CNc1nc(-c2c[nH]c(C(=O)Nc3ccccc3N3CCNCC3)n2)cc(N2CCOC(C(=O)NC3CCCCC3)C2)n1` (stereo not shown) [Compound 106, N-cyclohexyl-4-(2-(methylamino)-6-(2-(2-(piperazin-1-yl)phenylcarbamoyl)-1H-imidazol-4-yl)pyrimidin-4-yl)morpholine-2-carboxamide], the IC50 was 51 to 250 nM.

Take `CNc1nc(-c2c[nH]c(C(=O)Nc3cccc(F)c3N3CCC(CN)CC3)n2)cc(N2C[C@@H](C(=O)NC3CCCCC3)CC[C@H]2C)n1` [Compound 115, (3S,6R)-1-(6-(2-(2-(4-(aminomethyl)piperidin-1-yl)-3-fluorophenylcarbamoyl)-1H-imidazol-4-yl)-2-(methylamino)pyrimidin-4-yl)-N-cyclohexyl-6-methylpiperidine-3-carboxamide]: the IC50 lay in the range of 1 to 50 nM.

For `CNc1nc(-c2c[nH]c(C(=O)Nc3cccc(F)c3N3CCC(CN)CC3)n2)cc(N2C[C@H](C(=O)NC3CCCCC3)CC[C@@H]2C)n1` [Compound 116, (3R,6S)-1-(6-(2-(2-(4-(aminomethyl)piperidin-1-yl)-3-fluorophenylcarbamoyl)-1H-imidazol-4-yl)-2-(methylamino)pyrimidin-4-yl)-N-cyclohexyl-6-methylpiperidine-3-carboxamide], the IC50 lay within 1 to 50 nM.

As for `CNc1nc(-c2c[nH]c(C(=O)Nc3cccc(F)c3N3CCO[C@@H](CN)C3)n2)cc(N2C[C@@H](C(=O)NC3CCCCC3)CC[C@H]2C)n1` [Compound 117, (3S,6R)-1-(6-(2-(2-((S)-2-(aminomethyl)morpholino)-3-fluorophenylcarbamoyl)-1H-imidazol-4-yl)-2-(methylamino)pyrimidin-4-yl)-N-cyclohexyl-6-methylpiperidine-3-carboxamide], the IC50 was in the range of 1 to 50 nM.

Take `CNc1nc(-c2c[nH]c(C(=O)Nc3cccc(F)c3N3CCC(CN)CC3)n2)cc(N2CCNC[C@H]2C)n1` [Compound 120, (R)—N-(2-(4-(aminomethyl)piperidin-1-yl)-3-fluorophenyl)-4-(2-(methylamino)-6-(2-methylpiperazin-1-yl)pyrimidin-4-yl)-1H-imidazole-2-carboxamide]: the IC50 was in the range of 1 to 50 nM.

Consider `CNc1nc(-c2c[nH]c(C(=O)Nc3cccc(F)c3N3CCC(CN)CC3)n2)cc(N2CCOC[C@H]2C)n1` [Compound 121, (R)—N-(2-(4-(aminomethyl)piperidin-1-yl)-3-fluorophenyl)-4-(2-(methylamino)-6-(3-methylmorpholino)pyrimidin-4-yl)-1H-imidazole-2-carboxamide], for which the IC50 lay in the range of 1 to 50 nM.

With `CNc1nc(-c2c[nH]c(C(=O)Nc3cccc(F)c3N3CCC(CN)CC3)n2)cc(N2CCO[C@H](CN)C2)n1` [Compound 123, (R)-4-(6-(2-(aminomethyl)morpholino)-2-(methylamino)pyrimidin-4-yl)-N-(2-(4-(aminomethyl)piperidin-1-yl)-3-fluorophenyl)-1H-imidazole-2-carboxamide], the IC50 lay within 1 to 50 nM.

With `CNc1nc(-c2c[nH]c(C(=O)Nc3cccc(F)c3N3CCC(CN)CC3)n2)cc(N2CCN[C@@H](C)C2)n1` [Compound 124, (S)—N-(2-(4-(aminomethyl)piperidin-1-yl)-3-fluorophenyl)-4-(2-(methylamino)-6-(3-methylpiperazin-1-yl)pyrimidin-4-yl)-1H-imidazole-2-carboxamide], the IC50 was in the range of 1 to 50 nM.

`CNc1nc(-c2c[nH]c(C(=O)Nc3cccc(F)c3N3CCC(CN)CC3)n2)cc(N2CCC(CN)CC2)n1` [Compound 125, 4-(6-(4-(aminomethyl)piperidin-1-yl)-2-(methylamino)pyrimidin-4-yl)-N-(2-(4-(aminomethyl)piperidin-1-yl)-3-fluorophenyl)-1H-imidazole-2-carboxamide]: the IC50 lay in the range of 1 to 50 nM.

In the case of `CNc1nc(-c2c[nH]c(C(=O)Nc3cccc(F)c3N3CCC(CN)CC3)n2)cc(N2CCC[C@@H](N)C2)n1` [Compound 126, (R)—N-(2-(4-(aminomethyl)piperidin-1-yl)-3-fluorophenyl)-4-(6-(3-aminopiperidin-1-yl)-2-(methylamino)pyrimidin-4-yl)-1H-imidazole-2-carboxamide], the IC50 is 1 to 50 nM.

`CNc1nc(-c2c[nH]c(C(=O)Nc3cccc(F)c3N3CCC(CN)CC3)n2)cc(N2CCC(NC)(C(N)=O)CC2)n1` [Compound 127, 1-(6-(2-(2-(4-(aminomethyl)piperidin-1-yl)-3-fluorophenylcarbamoyl)-1H-imidazol-4-yl)-2-(methylamino)pyrimidin-4-yl)-4-(methylamino)piperidine-4-carboxamide]: the IC50 lay within 1 to 50 nM.

Take `CNc1nc(-c2c[nH]c(C(=O)Nc3cccc(F)c3N3CCC(CN)CC3)n2)cc(N2CC[C@@](OC)(C(N)=O)C2)n1` [Compound 128, (S)—N-(2-(4-(aminomethyl)piperidin-1-yl)-3-fluorophenyl)-4-(6-(3-carbamoyl-3-methoxypyrrolidin-1-yl)-2-(methylamino)pyrimidin-4-yl)-1H-imidazole-2-carboxamide]: the IC50 fell in the range of 1 to 50 nM.
